Measurements: ChEMBL document CHEMBL5705899 (Biochem J, 2014)
Activity calls are given as the source filed them. The calls are words filed in the database; no cut-off is given here.

How the values were obtained:
[1] = target: Serine/threonine-protein kinase pim-1 (Homo sapiens) (UniProt P11309); test: Inhibition of human PIM1 at 1 uM using RBER-GSK3 as substrate in presence of 33P-ATP by ProQinase assay
[2] = target: Serine/threonine-protein kinase PLK2 (Homo sapiens) (UniProt Q9NYY3); test: Inhibition of human SNK at 1 uM using RBER-GSK3 as substrate in presence of 33P-ATP by ProQinase assay
[3] = target: Serine/threonine-protein kinase Nek6 (Homo sapiens) (UniProt Q9HC98); test: Inhibition of recombinant human His6-tagged NEK6 (8 to 313 residues) expressed in baculovirus infected Sf21 cells assessed as remaining activity at 1 uM using FLAKSFGSPNRAYKK as substrate incubated for 30 mins in presence of [gamma-33P]ATP by filter binding method relative to control
[4] = target: Fibroblast growth factor receptor 1 (Homo sapiens) (UniProt P11362); test: Inhibition of human FGFR1 at 1 uM using polyEy as substrate in presence of 33P-ATP by ProQinase assay
[5] = target: Mitogen-activated protein kinase 7 (Homo sapiens) (UniProt Q13164); test: Inhibition of recombinant human N-terminal His6-tagged ERK5 (1 to 816 residues) expressed in baculovirus infected Sf21 cells assessed as remaining activity at 1 uM using MBP as substrate incubated for 30 mins in presence of [gamma-33P]ATP by filter binding method relative to control
[6] = target: Aurora kinase B (Homo sapiens) (UniProt Q96GD4); test: Inhibition of recombinant human N-terminal His6-tagged Aurora B (1 to 344 residues) expressed in Escherichia coli assessed as remaining activity at 1 uM using LRRLSLGLRRLSLGLRRLSLGLRRLSLG as substrate incubated for 30 mins in presence of [gamma-33P]ATP by filter binding method relative to control
[7] = target: Serine/threonine-protein kinase PAK 5 (Homo sapiens) (UniProt Q9P286); test: Inhibition of recombinant human N-terminal GST-tagged PAK5 (2 to 719 residues) expressed in Escherichia coli assessed as remaining activity at 1 uM using RRRLSFAEPG as substrate incubated for 30 mins in presence of [gamma-33P]ATP by filter binding method relative to control
[8] = target: Ribosomal protein S6 kinase alpha-1 (Homo sapiens) (UniProt Q15418); test: Inhibition of recombinant human N-terminal His6-tagged RSK1 (1 to 735 residues) expressed in baculovirus infected Sf21 cells assessed as remaining activity at 1 uM using KKLNRTLSVA as substrate incubated for 30 mins in presence of [gamma-33P]ATP by filter binding method relative to control
[9] = target: Serine/threonine-protein kinase PAK 5 (Homo sapiens) (UniProt Q9P286); test: Inhibition of human PAK7 at 1 uM using bio-4xCHKT as substrate in presence of 33P-ATP by ProQinase assay
[10] = target: CDK9/Cyclin K (Homo sapiens) (UniProt P50750+O75909); test: Inhibition of human CDK9/CycK at 1 uM using RBER-CHKtide as substrate in presence of 33P-ATP by ProQinase assay; assay type: protein-complex assay
[11] = target: Mitogen-activated protein kinase 1 (Homo sapiens) (UniProt P28482); test: Inhibition of human ERK2 at 1 uM using RBER-CHKtide as substrate in presence of 33P-ATP by ProQinase assay
[12] = tested on: RAC-alpha serine/threonine-protein kinase (Homo sapiens), P31749 [S473D]; test: Inhibition of recombinant human His6-tagged PKBalpha S473D mutant (118 to 480 residues) expressed in baculovirus infected Sf21 cells assessed as remaining activity at 1 uM using crosstide peptide as substrate incubated for 30 mins in presence of [gamma-33P]ATP by filter binding method relative to control
[13] = target: CDK9/cyclin T1 (Homo sapiens) (UniProt O60563+P50750); test: Inhibition of recombinant human N-terminal GST-tagged CDK9 (1 to 372 residues)/Cyclin T1 (1 to 726 residues) expressed in baculovirus infected Sf21 cells assessed as remaining activity at 1 uM using YSPTSPSYSPTSPSYSPTSPKKK as substrate incubated for 30 mins in presence of [gamma-33P]ATP by filter binding method relative to control
[14] = target: Dual specificity tyrosine-phosphorylation-regulated kinase 4 (Homo sapiens) (UniProt Q9NR20); test: Inhibition of human DYRK4 at 1 uM using RBER-CHKtide as substrate in presence of 33P-ATP by ProQinase assay
[15] = target: Tyrosine-protein kinase Mer (Homo sapiens) (UniProt Q12866); test: Inhibition of human MERTK at 1 uM using polyEY as substrate in presence of 33P-ATP by ProQinase assay
[16] = target: Serine/threonine-protein kinase VRK1 (Homo sapiens) (UniProt Q99986); test: Inhibition of human VRK1 at 1 uM using RBER-CHKtide as substrate in presence of 33P-ATP by ProQinase assay
[17] = target: Calcium/calmodulin-dependent protein kinase kinase 1 (Homo sapiens) (UniProt Q8N5S9); test: Inhibition of human CAMKK1 at 1 uM using RB-CTF as substrate in presence of 33P-ATP by ProQinase assay
[18] = target: Casein kinase I isoform gamma-1 (Homo sapiens) (UniProt Q9HCP0); test: Inhibition of human CK1gamma1 at 1 uM using casein as substrate in presence of 33P-ATP by ProQinase assay
[19] = target: Mitogen-activated protein kinase 3 (Homo sapiens) (UniProt P27361); test: Inhibition of human ERK1 at 1 uM using RBER-CHKtide as substrate in presence of 33P-ATP by ProQinase assay
[20] = target: Tyrosine-protein kinase Fes/Fps (Homo sapiens) (UniProt P07332); test: Inhibition of human FES at 1 uM using polyEY as substrate in presence of 33P-ATP by ProQinase assay
[21] = target: Ephrin type-A receptor 7 (Homo sapiens) (UniProt Q15375); test: Inhibition of human EPHA7 at 1 uM using polyEy as substrate in presence of 33P-ATP by ProQinase assay
[22] = target: Rhodopsin kinase GRK7 (Homo sapiens) (UniProt Q8WTQ7); test: Inhibition of human GRK7 at 1 uM using casein as substrate in presence of 33P-ATP by ProQinase assay
[23] = target: Cyclin-dependent kinase 2/cyclin E1 (Homo sapiens) (UniProt P24864+P24941); test: Inhibition of human CDK2/CycE1 at 1 uM using RBER-CHKtide as substrate in presence of 33P-ATP by ProQinase assay; assay type: protein-complex assay
[24] = target: Serine/threonine-protein kinase BRSK1 (Homo sapiens) (UniProt Q8TDC3); test: Inhibition of recombinant human N-terminal His6-tagged BRSK1 (2 to 778 residues) expressed in baculovirus infected Sf21 cells assessed as remaining activity at 1 uM using KKLNRTLSFAEPG as substrate incubated for 30 mins in presence of [gamma-33P]ATP by filter binding method relative to control
[25] = target: Phosphatidylinositol 4-kinase beta (Homo sapiens, UniProt Q9UBF8); test: Inhibition of human PI4KB using PI as substrate by ADP-Glo assay
Phosphatidylinositol 4-kinase beta, sequence (Q9UBF8 whole entry): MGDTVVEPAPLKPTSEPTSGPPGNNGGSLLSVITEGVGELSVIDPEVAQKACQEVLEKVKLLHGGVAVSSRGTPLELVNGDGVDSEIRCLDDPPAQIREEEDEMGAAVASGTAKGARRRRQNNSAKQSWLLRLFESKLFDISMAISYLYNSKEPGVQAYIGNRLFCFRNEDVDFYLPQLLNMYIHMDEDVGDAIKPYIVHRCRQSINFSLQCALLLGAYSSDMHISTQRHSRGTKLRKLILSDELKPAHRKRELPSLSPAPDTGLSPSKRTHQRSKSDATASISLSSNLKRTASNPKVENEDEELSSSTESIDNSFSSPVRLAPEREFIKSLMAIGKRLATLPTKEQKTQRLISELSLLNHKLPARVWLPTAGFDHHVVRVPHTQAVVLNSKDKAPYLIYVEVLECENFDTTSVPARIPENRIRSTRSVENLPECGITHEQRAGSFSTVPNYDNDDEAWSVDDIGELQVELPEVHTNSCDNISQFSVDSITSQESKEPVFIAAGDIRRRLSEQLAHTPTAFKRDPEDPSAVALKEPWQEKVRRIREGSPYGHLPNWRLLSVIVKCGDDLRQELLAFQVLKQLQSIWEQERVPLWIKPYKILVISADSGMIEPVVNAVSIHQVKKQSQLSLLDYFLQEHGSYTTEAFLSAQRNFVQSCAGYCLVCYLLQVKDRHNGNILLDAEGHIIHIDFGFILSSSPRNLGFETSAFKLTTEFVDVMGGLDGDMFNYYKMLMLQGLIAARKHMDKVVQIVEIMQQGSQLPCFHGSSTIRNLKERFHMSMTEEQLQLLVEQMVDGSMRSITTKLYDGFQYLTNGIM

Serine/threonine-protein kinase PAK 5 (Homo sapiens), sequence (Q9P286 whole entry, looked up, the tested form may be a part): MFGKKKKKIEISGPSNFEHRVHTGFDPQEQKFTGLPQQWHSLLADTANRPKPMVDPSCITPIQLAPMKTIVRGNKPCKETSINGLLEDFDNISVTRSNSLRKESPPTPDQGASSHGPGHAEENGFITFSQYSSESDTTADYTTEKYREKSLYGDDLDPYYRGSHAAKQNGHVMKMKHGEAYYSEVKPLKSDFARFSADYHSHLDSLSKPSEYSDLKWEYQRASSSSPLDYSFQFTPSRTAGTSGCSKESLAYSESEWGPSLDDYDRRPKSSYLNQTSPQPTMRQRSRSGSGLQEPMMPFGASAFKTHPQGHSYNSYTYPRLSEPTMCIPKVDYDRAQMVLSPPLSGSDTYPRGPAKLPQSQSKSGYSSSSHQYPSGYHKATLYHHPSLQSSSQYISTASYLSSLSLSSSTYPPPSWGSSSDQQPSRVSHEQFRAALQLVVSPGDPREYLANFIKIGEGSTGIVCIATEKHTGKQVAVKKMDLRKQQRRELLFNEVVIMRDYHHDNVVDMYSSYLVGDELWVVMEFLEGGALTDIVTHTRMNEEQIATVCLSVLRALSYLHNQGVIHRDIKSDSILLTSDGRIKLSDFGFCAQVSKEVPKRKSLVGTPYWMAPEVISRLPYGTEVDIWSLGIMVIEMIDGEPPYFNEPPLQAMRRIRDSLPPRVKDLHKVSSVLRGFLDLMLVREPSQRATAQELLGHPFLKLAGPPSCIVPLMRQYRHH
Serine/threonine-protein kinase VRK1 (Homo sapiens), sequence (Q99986 whole entry): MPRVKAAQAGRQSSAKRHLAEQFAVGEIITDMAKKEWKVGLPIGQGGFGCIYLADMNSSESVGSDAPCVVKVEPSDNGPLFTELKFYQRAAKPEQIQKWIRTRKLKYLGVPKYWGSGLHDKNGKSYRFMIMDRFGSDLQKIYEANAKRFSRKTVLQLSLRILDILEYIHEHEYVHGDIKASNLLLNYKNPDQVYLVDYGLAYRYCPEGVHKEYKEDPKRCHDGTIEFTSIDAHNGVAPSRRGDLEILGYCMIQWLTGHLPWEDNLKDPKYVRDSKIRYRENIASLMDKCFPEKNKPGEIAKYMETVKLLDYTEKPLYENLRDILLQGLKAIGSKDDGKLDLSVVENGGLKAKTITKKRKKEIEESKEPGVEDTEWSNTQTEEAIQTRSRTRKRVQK
Tyrosine-protein kinase Fes/Fps (Homo sapiens), sequence (P07332 whole entry): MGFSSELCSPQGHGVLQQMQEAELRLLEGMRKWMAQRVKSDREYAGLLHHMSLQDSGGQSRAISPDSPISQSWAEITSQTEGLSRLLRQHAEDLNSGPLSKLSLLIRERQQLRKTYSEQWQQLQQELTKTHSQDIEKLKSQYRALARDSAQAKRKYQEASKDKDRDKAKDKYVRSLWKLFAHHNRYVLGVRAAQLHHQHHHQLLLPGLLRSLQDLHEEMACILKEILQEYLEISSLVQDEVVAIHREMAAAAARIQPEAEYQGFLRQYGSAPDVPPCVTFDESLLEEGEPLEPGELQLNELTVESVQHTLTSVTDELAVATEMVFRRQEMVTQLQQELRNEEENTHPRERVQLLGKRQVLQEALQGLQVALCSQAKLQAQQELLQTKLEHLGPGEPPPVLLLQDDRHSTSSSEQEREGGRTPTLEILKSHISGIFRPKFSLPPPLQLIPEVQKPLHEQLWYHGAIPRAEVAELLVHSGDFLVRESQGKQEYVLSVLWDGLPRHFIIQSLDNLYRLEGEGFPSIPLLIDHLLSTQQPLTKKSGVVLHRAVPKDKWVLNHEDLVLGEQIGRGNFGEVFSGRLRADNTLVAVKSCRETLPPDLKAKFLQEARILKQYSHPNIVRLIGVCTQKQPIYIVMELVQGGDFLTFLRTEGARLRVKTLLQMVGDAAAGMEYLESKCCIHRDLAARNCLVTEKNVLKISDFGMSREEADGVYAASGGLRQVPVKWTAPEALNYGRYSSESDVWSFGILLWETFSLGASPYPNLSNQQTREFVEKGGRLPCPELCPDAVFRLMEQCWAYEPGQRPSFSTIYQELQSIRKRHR
Mitogen-activated protein kinase 1 (Homo sapiens), sequence (P28482 whole entry, the tested form may be a part): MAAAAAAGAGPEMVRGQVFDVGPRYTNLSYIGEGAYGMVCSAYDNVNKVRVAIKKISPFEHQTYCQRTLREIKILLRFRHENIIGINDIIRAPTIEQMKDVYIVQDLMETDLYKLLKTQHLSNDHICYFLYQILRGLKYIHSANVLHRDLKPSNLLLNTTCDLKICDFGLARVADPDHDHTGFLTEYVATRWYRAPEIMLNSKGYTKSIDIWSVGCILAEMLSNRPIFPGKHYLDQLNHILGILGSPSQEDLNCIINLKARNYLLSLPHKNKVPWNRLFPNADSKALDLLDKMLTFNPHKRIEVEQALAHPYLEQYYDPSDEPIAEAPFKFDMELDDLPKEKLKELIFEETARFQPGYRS
Calcium/calmodulin-dependent protein kinase kinase 1 (Homo sapiens), sequence (Q8N5S9 whole entry, looked up, canonical isoform): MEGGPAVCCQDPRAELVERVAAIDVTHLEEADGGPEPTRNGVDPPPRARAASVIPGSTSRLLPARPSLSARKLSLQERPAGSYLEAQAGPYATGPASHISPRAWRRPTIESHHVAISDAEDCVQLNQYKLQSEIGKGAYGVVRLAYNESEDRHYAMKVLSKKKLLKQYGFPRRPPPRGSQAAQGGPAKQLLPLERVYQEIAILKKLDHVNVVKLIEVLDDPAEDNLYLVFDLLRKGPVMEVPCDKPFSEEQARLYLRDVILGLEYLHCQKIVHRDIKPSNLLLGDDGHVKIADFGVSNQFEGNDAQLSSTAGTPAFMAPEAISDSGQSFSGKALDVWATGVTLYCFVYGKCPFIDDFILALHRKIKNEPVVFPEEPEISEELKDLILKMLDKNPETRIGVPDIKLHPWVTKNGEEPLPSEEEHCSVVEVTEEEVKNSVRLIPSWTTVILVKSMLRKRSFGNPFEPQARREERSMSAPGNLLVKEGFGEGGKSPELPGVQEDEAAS
Dual specificity tyrosine-phosphorylation-regulated kinase 4 (Homo sapiens), sequence (Q9NR20 whole entry): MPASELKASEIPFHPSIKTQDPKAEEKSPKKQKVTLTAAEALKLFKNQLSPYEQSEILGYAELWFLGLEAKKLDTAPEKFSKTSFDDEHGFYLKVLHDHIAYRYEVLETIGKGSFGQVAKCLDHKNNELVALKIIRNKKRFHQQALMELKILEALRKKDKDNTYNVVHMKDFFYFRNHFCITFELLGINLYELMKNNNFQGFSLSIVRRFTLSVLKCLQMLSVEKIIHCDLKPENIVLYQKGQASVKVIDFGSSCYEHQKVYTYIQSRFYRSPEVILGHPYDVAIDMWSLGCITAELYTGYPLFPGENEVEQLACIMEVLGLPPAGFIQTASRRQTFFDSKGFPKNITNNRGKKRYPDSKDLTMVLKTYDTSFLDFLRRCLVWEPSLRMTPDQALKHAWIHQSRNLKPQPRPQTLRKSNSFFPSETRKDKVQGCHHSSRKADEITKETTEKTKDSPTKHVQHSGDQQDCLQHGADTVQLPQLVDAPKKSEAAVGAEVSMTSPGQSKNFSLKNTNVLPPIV
Serine/threonine-protein kinase BRSK1 (Homo sapiens), sequence (Q8TDC3 whole entry, the tested form may be a part): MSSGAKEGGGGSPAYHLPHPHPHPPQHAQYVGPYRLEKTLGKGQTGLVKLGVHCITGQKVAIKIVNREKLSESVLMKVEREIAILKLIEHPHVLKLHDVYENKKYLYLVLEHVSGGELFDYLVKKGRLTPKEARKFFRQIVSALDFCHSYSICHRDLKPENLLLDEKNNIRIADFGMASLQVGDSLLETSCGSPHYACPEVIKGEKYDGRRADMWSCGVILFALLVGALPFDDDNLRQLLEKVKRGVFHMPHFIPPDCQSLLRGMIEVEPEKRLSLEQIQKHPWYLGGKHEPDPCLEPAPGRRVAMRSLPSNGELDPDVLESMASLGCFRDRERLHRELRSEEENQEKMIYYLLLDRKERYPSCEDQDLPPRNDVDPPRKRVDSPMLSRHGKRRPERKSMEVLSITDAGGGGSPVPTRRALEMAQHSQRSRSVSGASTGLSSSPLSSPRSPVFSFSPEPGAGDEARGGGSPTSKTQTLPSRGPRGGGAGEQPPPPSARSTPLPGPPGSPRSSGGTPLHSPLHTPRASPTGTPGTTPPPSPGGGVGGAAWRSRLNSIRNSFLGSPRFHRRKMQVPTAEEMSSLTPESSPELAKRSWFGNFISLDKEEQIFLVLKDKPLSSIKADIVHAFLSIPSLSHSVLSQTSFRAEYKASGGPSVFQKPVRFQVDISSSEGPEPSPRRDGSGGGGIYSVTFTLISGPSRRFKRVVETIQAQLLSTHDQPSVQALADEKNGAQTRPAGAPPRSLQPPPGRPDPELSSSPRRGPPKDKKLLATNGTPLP

For `CC(C)(O)CNc1ncc(-c2ccnc(Nc3ccnc(Cl)c3)n2)c(CC2CC2)n1`, the inhibition [1] was “inactive”, the inhibition [2] was “inactive” and the Activity [3] was 98%. The inhibition [4] was “inactive”, the Activity [5] was 104% and the Activity [6] was 83%. For the same compound, the Activity [7] was 96%, the Activity [8] was 99% and the inhibition [9] was “inactive”. The inhibition [10] was “inactive”, the inhibition [11] was “inactive” and the Activity [12] was 116%. The Activity [13] was 91%, the inhibition [14] was “inactive” and the inhibition [15] was “inactive”. For the same compound, the inhibition [16] was “inactive”, the inhibition [17] was “inactive” and the inhibition [18] was “inactive”. The inhibition [19] was “inactive”, the inhibition [20] was “inactive” and the inhibition [21] was “inactive”. The inhibition [22] was “inactive”, the inhibition [23] was “inactive” and the Activity [24] was 109%. The IC50 [25] was over 10 µM.
